What all share (test): biochemical
For assay [1], the target named is T1, serotonine (5-HT) reuptake in synaptosomes (Rattus norvegicus, UniProt P31652).
T1 construct: in synaptosomes as described in WO 97/16451; from tissue

For assay [2], the target named is T2, dopamine (DA) reuptake in synaptosomes (Rattus norvegicus, UniProt P23977).
T2 construct: in synaptosomes as described in WO 97/16451; from tissue

The target of assay [3] is T3, noradrenaline (NA) reuptake in synaptosomes (Rattus norvegicus, UniProt Q63380).
T3 construct: in synaptosomes as described in WO 97/16451; from tissue
T3 sequence (Q63380 1-617): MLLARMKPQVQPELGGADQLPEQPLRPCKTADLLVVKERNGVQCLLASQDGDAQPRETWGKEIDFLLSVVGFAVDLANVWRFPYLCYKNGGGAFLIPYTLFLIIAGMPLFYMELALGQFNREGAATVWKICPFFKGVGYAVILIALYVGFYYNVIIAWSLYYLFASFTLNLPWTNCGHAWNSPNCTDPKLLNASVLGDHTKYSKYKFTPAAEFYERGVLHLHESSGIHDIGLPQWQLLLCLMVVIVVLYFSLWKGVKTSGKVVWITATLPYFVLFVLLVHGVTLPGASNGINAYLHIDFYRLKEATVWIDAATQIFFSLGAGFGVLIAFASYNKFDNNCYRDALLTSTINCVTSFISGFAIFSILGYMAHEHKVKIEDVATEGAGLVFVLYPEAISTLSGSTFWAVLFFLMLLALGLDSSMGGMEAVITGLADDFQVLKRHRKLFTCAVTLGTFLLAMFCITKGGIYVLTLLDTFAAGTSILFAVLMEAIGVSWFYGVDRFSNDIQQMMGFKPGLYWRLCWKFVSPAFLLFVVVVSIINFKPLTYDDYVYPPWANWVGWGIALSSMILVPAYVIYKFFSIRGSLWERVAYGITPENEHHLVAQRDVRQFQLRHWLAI

Each structure is given as a SMILES string. Structures can show the parent of a compound that is named as a salt.

T2 sequence (P23977 whole entry): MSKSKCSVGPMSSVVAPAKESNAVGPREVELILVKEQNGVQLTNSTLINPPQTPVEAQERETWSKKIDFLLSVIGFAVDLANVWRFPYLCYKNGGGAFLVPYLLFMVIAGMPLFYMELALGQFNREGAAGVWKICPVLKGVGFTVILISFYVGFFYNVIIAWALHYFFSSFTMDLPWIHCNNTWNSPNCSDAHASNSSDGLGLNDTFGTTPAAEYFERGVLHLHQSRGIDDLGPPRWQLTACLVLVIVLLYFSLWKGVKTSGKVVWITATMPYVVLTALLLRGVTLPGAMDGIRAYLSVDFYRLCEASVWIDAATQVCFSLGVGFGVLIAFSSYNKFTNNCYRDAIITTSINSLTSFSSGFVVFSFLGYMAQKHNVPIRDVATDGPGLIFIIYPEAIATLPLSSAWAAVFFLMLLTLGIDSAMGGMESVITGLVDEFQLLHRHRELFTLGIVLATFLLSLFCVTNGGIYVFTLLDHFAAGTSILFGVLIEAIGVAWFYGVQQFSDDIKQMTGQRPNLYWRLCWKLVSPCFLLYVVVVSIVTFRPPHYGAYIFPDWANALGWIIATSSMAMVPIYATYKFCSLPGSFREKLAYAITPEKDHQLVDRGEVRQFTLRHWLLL
T1 sequence (P31652 whole entry): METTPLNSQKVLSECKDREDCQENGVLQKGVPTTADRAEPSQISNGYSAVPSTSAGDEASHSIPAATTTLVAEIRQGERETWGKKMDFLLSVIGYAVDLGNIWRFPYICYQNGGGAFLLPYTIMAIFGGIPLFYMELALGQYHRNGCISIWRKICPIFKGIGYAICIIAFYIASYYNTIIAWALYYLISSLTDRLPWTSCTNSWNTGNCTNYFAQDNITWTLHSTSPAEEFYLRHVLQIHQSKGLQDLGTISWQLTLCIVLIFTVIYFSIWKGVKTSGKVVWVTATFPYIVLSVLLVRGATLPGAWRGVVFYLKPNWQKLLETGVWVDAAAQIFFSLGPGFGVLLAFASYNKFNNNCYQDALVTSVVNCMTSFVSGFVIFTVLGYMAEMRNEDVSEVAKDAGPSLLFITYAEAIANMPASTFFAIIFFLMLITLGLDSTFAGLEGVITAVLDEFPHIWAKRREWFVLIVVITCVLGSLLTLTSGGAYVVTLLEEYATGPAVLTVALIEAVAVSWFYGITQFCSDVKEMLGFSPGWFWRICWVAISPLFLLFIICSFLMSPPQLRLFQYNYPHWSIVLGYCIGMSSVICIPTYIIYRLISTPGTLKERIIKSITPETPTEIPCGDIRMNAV

By IC50 is commonly meant the concentration at which inhibition is half-maximal. Turning to `CCC(=O)N(CC1CCN(CCc2ccc(F)cc2)CC1)c1ccccc1` [Compound 12j, N-{1-[2-(4-Fluoro-phenyl)-ethyl]-piperidin-4-ylmethyl}-N-phenyl-propionamide fumaric acid salt], the IC50 in assay [1] is 5500 nM; in assay [2] it was 480 nM; in assay [3], 280 nM.
